Converted amounts (≈) assume the structure as drawn. Numbered stars: 1 amine (or outer) side, 2 acyl side, 3 side chain; on linkers, the order of the positions; unused ones are H or OH. Bridge positions count the residues as written; N and C are the ends. Square brackets hold non-standard residues; d marks the D form. Peptide text beside a SMILES is read from it. * marks the point of attachment. Ileψ(thiazoline)Cys = CC[C@H](C)[C@H](N)C1=N[C@H](C(=O)*)CS1; NMePhe(4-NMe2) = CN[C@@H](Cc1ccc(N(C)C)cc1)C(=O)O; X1 = O=C([C@@H]1CC=C(CN2CCOCC2)CN1[*:1])[*:2]; Picolinoyl(3-OH) = O=C(c1ncccc1O)*; Phg = N[C@H](C(=O)O)c1ccccc1; dOrn = NCCC[C@@H](N)C(=O)O; dAbu = CC[C@@H](N)C(=O)O Where only a bound is given, the exact number is not on record here.

In the first experiment the test system is T1, Paenibacillus sp. LC231.
T1 construct: LC231
In words: microbe, parasite or virus in culture. The arrangement: antibacterial susceptibility, minimal inhibitory concentration (quantitative antibiogram). The text has this: (§1) We generated a quantitative antibiogram for Paenibacillus sp. LC231 for 40 different antibiotics that target diverse cellular processes and compared it with the susceptibility of a surface strain of Paenibacillus lautus ATCC 43898, the pathogen Staphylococcus aureus RN4220 and the environmental bacterium Kocuria rhizophila (formerly identified as Micrococcus luteus) (Supplementary Tables 1 and 2). […] Further experiments in this study investigate the molecular basis of resistance and not the contribution of each genetic determinant to the resistance phenotype of Paenibacillus sp. LC231. […] We focused our investigation on Paenibacillus sp. LC231 and determined that in addition to resistance to 14 classes of antibiotic, it inactivates 7 distinct classes.
`CN[C@@H]1[C@H](O[C@H]2[C@H](O[C@H]3[C@H](O)[C@@H](O)[C@H](N=C(N)N)[C@@H](O)[C@@H]3N=C(N)N)O[C@@H](C)[C@]2(O)C=O)O[C@@H](CO)[C@H](O)[C@H]1O` [Streptomycin] returned an MIC not below 128 µg/mL.

Molecule `CCC[C@@H]1C[C@@H](C(=O)N[C@@H]([C@H]2O[C@H](SC)[C@H](O)[C@@H](O)[C@H]2O)[C@H](C)Cl)N(C)C1` [Clindamycin] displayed an MIC of 16 µg/mL (≈ 37.6 µM).

As for `CC[C@H]1OC(=O)[C@H](C)[C@@H](O[C@H]2C[C@@](C)(OC)[C@@H](O)[C@H](C)O2)[C@H](C)[C@@H](O[C@@H]2O[C@H](C)C[C@H](N(C)C)[C@H]2O)[C@](C)(O)C[C@@H](C)CN(C)[C@H](C)[C@@H](O)[C@]1(C)O` [Azithromycin], the MIC came to 16 µg/mL (≈ 21.4 µM).

As to `NC[C@H]1O[C@H](O[C@H]2[C@H](O)[C@@H](O[C@H]3O[C@H](CO)[C@@H](O)[C@H](N)[C@H]3O)[C@H](N)C[C@@H]2N)[C@H](O)[C@@H](O)[C@@H]1O` [Kanamycin], the MIC is not below 128 µg/mL.

For `CN[C@@H]1[C@H](O)[C@H](NC)[C@H]2O[C@@]3(O)C(=O)C[C@@H](C)O[C@H]3O[C@@H]2[C@H]1O` [Spectinomycin], the MIC is not below 128 µg/mL.

Molecule `CC[C@H]1OC(=O)[C@H](C)[C@@H](O[C@H]2C[C@@](C)(OC)[C@@H](O)[C@H](C)O2)[C@H](C)[C@@H](O[C@@H]2O[C@H](C)C[C@H](N(C)C)[C@H]2O)[C@](C)(O)C[C@@H](C)C(=O)[C@H](C)[C@@H](O)[C@]1(C)O` [Erythromycin] returned an MIC of 2 µg/mL (≈ 2.73 µM).

`CO[C@@H]1[C@@H](OC(N)=O)[C@@H](O)[C@H](Oc2ccc3c(O)c(NC(=O)c4ccc(O)c(CC=C(C)C)c4)c(=O)oc3c2C)OC1(C)C` [Novobiocin] returned an MIC of 0.25 µg/mL (≈ 0.408 µM).

`C[C@H]1COc2c(N3CCN(C)CC3)c(F)cc3c(=O)c(C(=O)O)cn1c23` [Levofloxacin] yielded an MIC of 0.25 µg/mL (≈ 0.692 µM).

`CC(=O)O[C@H]1C[C@@]2(C)[C@@H](C[C@@H](O)[C@H]3[C@@]4(C)CC[C@@H](O)[C@@H](C)[C@@H]4CC[C@@]32C)/C1=C(\CCC=C(C)C)C(=O)O` [Fusidic acid] displayed an MIC of 8 µg/mL (≈ 15.5 µM).

Regarding `CC1=C\[C@@H](O)C[C@@H](F)Cc2nc(co2)C(=O)N2CCC[C@@H]2C(=O)O[C@H](C(C)C)[C@H](C)/C=C/C(=O)NC\C=C\1` [Flopristin], the MIC stood at 32 µg/mL (≈ 60.2 µM).

`CCn1cc(C(=O)O)c(=O)c2ccc(C)nc21` [Nalidixic acid] returned an MIC of 4 µg/mL (≈ 17.2 µM).

Consider `C/C(=C\C(=O)OCCCCCCCCC(=O)O)C[C@@H]1OC[C@H](C[C@@H]2O[C@H]2[C@@H](C)[C@H](C)O)[C@@H](O)[C@H]1O` [Mupirocin], for which the MIC is not below 100 µg/mL.

In the case of `CO/N=C(\C(=O)N[C@@H]1C(=O)N2C(C(=O)O)=C(COC(C)=O)CS[C@H]12)c1csc(N)n1` [Cefotaxime], the MIC was 2 µg/mL (≈ 4.39 µM).

`CC(=O)NC[C@H]1CN(c2ccc(N3CCOCC3)c(F)c2)C(=O)O1` [Linezolid] returned an MIC of 1 µg/mL (≈ 2.96 µM).

Molecule `CN[C@@H]1[C@@H](O[C@H]2O[C@H](CO)[C@@H](N)[C@H](O)[C@H]2O)O[C@H]2C[C@@H](N)[C@@H](O[C@H]3[C@H](O)[C@@H](O)[C@H](N)C[C@@H]3N)O[C@@H]2[C@@H]1O` [Apramycin] registered an MIC of 8 µg/mL (≈ 14.8 µM).

In turn, `O=C(O)c1cn(C2CC2)c2cc(N3CCNCC3)c(F)cc2c1=O` [Ciprofloxacin] gave an MIC of 0.25 µg/mL (≈ 0.754 µM).

Take `C=C[C@]1(C)C[C@@H](OC(=O)CSCCN(CC)CC)[C@]2(C)[C@H](C)CC[C@]3(CCC(=O)[C@H]32)[C@@H](C)[C@@H]1O` [Tiamulin]: the MIC amounted to 32 µg/mL (≈ 64.8 µM).

In turn, `NC[C@H]1O[C@H](O[C@H]2[C@H](O)[C@@H](O[C@H]3O[C@H](CO)[C@@H](O)[C@H](N)[C@H]3O)[C@H](N)C[C@@H]2N)[C@H](N)C[C@@H]1O` [Tobramycin] showed an MIC of 32 µg/mL (≈ 68.4 µM).

`N=C1NCCC([C@@H]2NC(=O)/C(=C/NC(N)=O)NC(=O)[C@H](CNC(=O)CC(N)CCCN)NC(=O)[C@H](CO)NC(=O)[C@@H](N)CNC2=O)N1` (mixture of isomers) [capreomycin] yielded an MIC of 32 µg/mL.

Regarding `CC[C@H]1OC(=O)C[C@@H](O)[C@H](C)[C@@H](O[C@@H]2O[C@H](C)[C@@H](O[C@H]3C[C@@](C)(O)[C@@H](O)[C@H](C)O3)[C@H](N(C)C)[C@H]2O)[C@@H](CC=O)C[C@@H](C)C(=O)/C=C/C(C)=C/[C@@H]1CO[C@@H]1O[C@H](C)[C@@H](O)[C@@H](OC)[C@H]1OC` [tylosin], the MIC turned out to be 16 µg/mL (≈ 17.5 µM).

For the molecule `CO[C@H]1/C=C/O[C@@]2(C)Oc3c(C)c(O)c4c(O)c(c(/C=N/N5CCN(C)CC5)c(O)c4c3C2=O)NC(=O)/C(C)=C\C=C\[C@H](C)[C@H](O)[C@@H](C)[C@@H](O)[C@@H](C)[C@H](OC(C)=O)[C@@H]1C` [rifampin], the MIC was found to be 1 µg/mL (≈ 1.22 µM).

Take `NC[C@@H]1O[C@H](O[C@H]2[C@@H](O)[C@H](O[C@@H]3[C@@H](O)[C@H](N)C[C@H](N)[C@H]3O[C@H]3O[C@H](CN)[C@@H](O)[C@H](O)[C@H]3N)O[C@@H]2CO)[C@H](N)[C@@H](O)[C@@H]1O` [Neomycin]: the MIC came to 2 µg/mL (≈ 3.25 µM).

`C[C@@H](O)[C@H]1C(=O)N2C(C(=O)O)=C(S[C@@H]3CN[C@H](C(=O)N(C)C)C3)[C@H](C)[C@H]12` [Meropenem] gave an MIC of 2 µg/mL (≈ 5.22 µM).

Turning to `C[C@@H]1O[C@@H]1P(=O)(O)O` [Fosfomycin], the MIC is not below 128 µg/mL.

`CC1=C(C(=O)O)N2C(=O)[C@@H](NC(=O)[C@H](N)c3ccccc3)[C@H]2SC1` [Cephalexin] showed an MIC not below 128 µg/mL.

Molecule `CC[C@H]1NC(=O)[C@@H](NC(=O)c2ncccc2O)[C@@H](C)OC(=O)[C@H](c2ccccc2)NC(=O)[C@@H]2CC=C(CN3CCOCC3)CN2C(=O)[C@H](Cc2ccc(N(C)C)cc2)N(C)C(=O)[C@@H]2CCCN2C1=O` [linopristin] ({Picolinoyl(3-OH)}-T[dAbu]P[NMePhe(4-NMe2)][X1][Phg]; ester 1-C) came in with an MIC of 64 µg/mL (≈ 67.4 µM).

The molecule `O=C(N[C@H](CO)[C@H](O)c1ccc([N+](=O)[O-])cc1)C(Cl)Cl` [chloramphenicol] yielded an MIC of 32 µg/mL (≈ 99 µM).

In the case of `CN(C)[C@@H]1C(O)=C(C(N)=O)C(=O)[C@@]2(O)C(O)=C3C(=O)c4c(O)cccc4[C@@](C)(O)[C@H]3C[C@@H]12` [Tetracycline], the MIC was not below 128 µg/mL.

As to `NCC[C@H](O)C(=O)N[C@@H]1C[C@H](N)[C@@H](O[C@H]2O[C@H](CN)[C@@H](O)[C@H](O)[C@H]2O)[C@H](O)[C@H]1O[C@H]1O[C@H](CO)[C@@H](O)[C@H](N)[C@H]1O` [Amikacin], the MIC turned out to be 16 µg/mL (≈ 27.3 µM).

Take `CC[C@H]1OC(=O)[C@H](C)[C@@H](O[C@H]2C[C@@](C)(OC)[C@@H](O)[C@H](C)O2)[C@H](C)[C@@H](O[C@@H]2O[C@H](C)C[C@H](N(C)C)[C@H]2O)[C@](C)(OC)C[C@@H](C)C(=O)[C@H](C)[C@@H](O)[C@]1(C)O` [Clarithromycin]: the MIC worked out at 0.25 µg/mL (≈ 0.334 µM).

`CN[C@H](CC(C)C)C(=O)N[C@H]1C(=O)N[C@@H](CC(N)=O)C(=O)N[C@H]2C(=O)N[C@H]3C(=O)N[C@H](C(=O)N[C@H](C(=O)O)c4cc(O)cc(O)c4-c4cc3ccc4O)[C@H](O)c3ccc(c(Cl)c3)Oc3cc2cc(c3O[C@@H]2O[C@H](CO)[C@@H](O)[C@H](O)[C@H]2O[C@H]2C[C@](C)(N)[C@H](O)[C@H](C)O2)Oc2ccc(cc2Cl)[C@H]1O` [Vancomycin] had an MIC of 1 µg/mL (≈ 0.69 µM).

For `CNC(C)[C@@H]1CC[C@@H](N)[C@@H](O[C@H]2[C@H](O)[C@@H](O[C@H]3OC[C@](C)(O)[C@H](NC)[C@H]3O)[C@H](N)C[C@@H]2N)O1` (some centres unmarked) [Gentamicin], the MIC is 2 µg/mL (≈ 4.19 µM).

In turn, `CC[C@H]1OC(=O)[C@H](C)C(=O)[C@H](C)[C@@H](O[C@@H]2O[C@H](C)C[C@H](N(C)C)[C@H]2O)[C@](C)(OC)C[C@@H](C)C(=O)[C@H](C)[C@H]2N(CCCCn3cnc(-c4cccnc4)c3)C(=O)O[C@]12C` [Telithromycin] returned an MIC of 2 µg/mL (≈ 2.46 µM).

The molecule `CC1(C)S[C@@H]2[C@H](NC(=O)[C@H](N)c3ccccc3)C(=O)N2[C@H]1C(=O)O` [Ampicillin] displayed an MIC of 8 µg/mL (≈ 22.9 µM).

A further experiment relates to T1, Paenibacillus sp. LC231. Nature of the experiment: microbe, parasite or virus in culture. Further details: broth microdilution MIC, growth inhibition of Paenibacillus sp. LC231. The source holds these as a separate data set.
Source text: as §1
With `CCCCCCCCCC(=O)N[C@@H](Cc1c[nH]c2ccccc12)C(=O)N[C@H](CC(N)=O)C(=O)N[C@@H](CC(=O)O)C(=O)N[C@@H]1C(=O)NCC(=O)N[C@@H](CCCN)C(=O)N[C@@H](CC(=O)O)C(=O)N[C@H](C)C(=O)N[C@@H](CC(=O)O)C(=O)NCC(=O)N[C@H](CO)C(=O)N[C@@H]([C@H](C)CC(=O)O)C(=O)N[C@@H](CC(=O)c2ccccc2N)C(=O)O[C@@H]1C` [Daptomycin], the MIC was found to be 16 µg/mL (≈ 9.87 µM).

In turn, `CC[C@H](C)[C@H](N)C1=N[C@H](C(=O)N[C@@H](CC(C)C)C(=O)N[C@H](CCC(=O)O)C(=O)N[C@H](C(=O)N[C@H]2CCCCNC(=O)[C@H](CC(N)=O)NC(=O)[C@@H](CC(=O)O)NC(=O)[C@H](Cc3cnc[nH]3)NC(=O)[C@@H](Cc3ccccc3)NC(=O)[C@H]([C@@H](C)CC)NC(=O)[C@@H](CCCN)NC2=O)[C@@H](C)CC)CS1` [Bacitracin] ({Ileψ(thiazoline)Cys}-L[dE]IK[dOrn]I[dF]H[dD]N; lactam 4-C) came in with an MIC not below 128 µg/mL.

On to `C=C(NC(=O)C(=C)NC(=O)c1csc(C2=N[C@@H]3c4csc(n4)[C@H]4NC(=O)c5csc(n5)[C@H]([C@](C)(O)[C@@H](C)O)NC(=O)[C@H]5CSC(=N5)/C(=C/C)NC(=O)[C@H]([C@@H](C)O)NC(=O)c5csc(n5)[C@]3(CC2)NC(=O)[C@H](C)NC(=O)C(=C)NC(=O)[C@H](C)NC(=O)[C@H]([C@@H](C)CC)N[C@@H]2C=Cc3c([C@H](C)O)cc(nc3[C@H]2O)C(=O)O[C@@H]4C)n1)C(N)=O` [Thiostrepton], for which the MIC stood at 0.25 µg/mL (≈ 0.15 µM).

Turning to `C[C@H]1O[C@H](O[C@H]2[C@H](O)[C@@H](O)[C@@H](O)[C@H](O)[C@@H]2O)[C@@H](N)C[C@@H]1N=C(N)C(=O)O` [kasugamycin], the MIC was not below 128 µg/mL.

These data come from paper PMC5155152, “A diverse intrinsic antibiotic resistome from a cave bacterium” (Nature Communications, 2016).
